In PubChem BioAssay (NCI):
Several values for one entry are separate records, joined by “and”; a condition that tells them apart may be missing. Equal entries are not always repeated.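 Results reflect a 48-hour exposure of cells in 96-well plates to compound at five concentrations. GI50 is the concentration that inhibits growth by half. At the TGI there is no net growth.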

Columns and labels:
Test in all cases: NCI anticancer screen, dose series, 48 h
786-0 renal = tested on: 786-0 renal
A498 renal = tested on: A498 renal
A549 NSCLC = tested on: A549 NSCLC
ACHN renal = tested on: ACHN renal
BT-549 breast = tested on: BT-549 breast
CAKI-1 renal = tested on: CAKI-1 renal
CCRF-CEM leukemia = tested on: CCRF-CEM leukemia
COLO 205 colon = tested on: COLO 205 colon
DU-145 prostate = tested on: DU-145 prostate
EKVX NSCLC = tested on: EKVX NSCLC
HCC-2998 colon = tested on: HCC-2998 colon
HCT-116 colon = tested on: HCT-116 colon
HCT-15 colon = tested on: HCT-15 colon
HL-60(TB) leukemia = tested on: HL-60(TB) leukemia
HOP-62 NSCLC = tested on: HOP-62 NSCLC
HOP-92 NSCLC = tested on: HOP-92 NSCLC
HS 578T breast = tested on: HS 578T breast
HT29 colon = tested on: HT29 colon
IGROV1 ovarian = tested on: IGROV1 ovarian
K-562 leukemia = tested on: K-562 leukemia
KM12 colon = tested on: KM12 colon
LOX IMVI melanoma = tested on: LOX IMVI melanoma
M14 melanoma = tested on: M14 melanoma
MALME-3M melanoma = tested on: MALME-3M melanoma
MCF7 breast = tested on: MCF7 breast
MDA-MB-231 breast = tested on: MDA-MB-231 breast
MDA-MB-435 = tested on: MDA-MB-435
MOLT-4 leukemia = tested on: MOLT-4 leukemia
NCI-H226 lung = tested on: NCI-H226 lung
NCI-H23 lung = tested on: NCI-H23 lung
NCI-H460 lung = tested on: NCI-H460 lung
NCI-H522 lung = tested on: NCI-H522 lung
NCI/ADR-RES ovarian = tested on: NCI/ADR-RES ovarian
OVCAR-3 ovarian = tested on: OVCAR-3 ovarian
OVCAR-4 ovarian = tested on: OVCAR-4 ovarian
OVCAR-5 ovarian = tested on: OVCAR-5 ovarian
OVCAR-8 ovarian = tested on: OVCAR-8 ovarian
PC-3 prostate = tested on: PC-3 prostate
RPMI-8226 leukemia = tested on: RPMI-8226 leukemia
RXF 393 renal = tested on: RXF 393 renal
SF-268 CNS = tested on: SF-268 CNS
SF-295 CNS = tested on: SF-295 CNS
SF-539 CNS = tested on: SF-539 CNS
SK-MEL-2 melanoma = tested on: SK-MEL-2 melanoma
SK-MEL-28 melanoma = tested on: SK-MEL-28 melanoma
SK-MEL-5 melanoma = tested on: SK-MEL-5 melanoma
SK-OV-3 ovarian = tested on: SK-OV-3 ovarian
SN12C renal = tested on: SN12C renal
SNB-19 CNS = tested on: SNB-19 CNS
SR leukemia = tested on: SR leukemia
SW-620 colon = tested on: SW-620 colon
TK-10 renal = tested on: TK-10 renal
U251 CNS = tested on: U251 CNS
UACC-257 melanoma = tested on: UACC-257 melanoma
UACC-62 melanoma = tested on: UACC-62 melanoma
UO-31 renal = tested on: UO-31 renal

## COc1ccc(-c2cc(=O)oc3ccc(Cl)cc23)cc1F
786-0 renal
  GI50: 366 nM and 87.7 nM
  TGI: > 100000 nM
A498 renal
  GI50: 103 nM and 47.1 nM
  TGI: 790 nM and 5170 nM
A549 NSCLC
  GI50: 268 nM and 105 nM
  TGI: > 100000 nM
ACHN renal
  TGI: > 100000 nM
BT-549 breast
  GI50: 303 nM and 66.5 nM
  TGI: 6620 nM
CAKI-1 renal
  TGI: > 100000 nM
CCRF-CEM leukemia
  GI50: 222 nM and 59.9 nM
  TGI: > 100000 nM
COLO 205 colon
  GI50: 146 nM and 85.3 nM
  TGI: 1090 nM and 896 nM
DU-145 prostate
  GI50: 255 nM and 261 nM
  TGI: 4160 nM and 27300 nM
EKVX NSCLC
  GI50: 509 nM and 362 nM
  TGI: > 100000 nM
HCC-2998 colon
  GI50: 590 nM and 243 nM
  TGI: 30200 nM
HCT-116 colon
  GI50: 91.3 nM and 44.7 nM
  TGI: 3630 nM and 10700 nM
HCT-15 colon
  GI50: 53.7 nM and 46.3 nM
  TGI: 10400 nM
HL-60(TB) leukemia
  GI50: 129 nM and 33.9 nM
  TGI: 908 nM and 480 nM
HOP-62 NSCLC
  GI50: 208 nM and 188 nM
  TGI: 27300 nM
HOP-92 NSCLC
  TGI: 7940 nM
HS 578T breast
  GI50: 181 nM and 75.4 nM
  TGI: 68900 nM
HT29 colon
  GI50: 53.8 nM and 39.7 nM
  TGI: 336 nM
IGROV1 ovarian
  GI50: 1160 nM and 683 nM
  TGI: > 100000 nM
K-562 leukemia
  GI50: 43.5 nM and 40.1 nM
KM12 colon
  GI50: 71.2 nM and 52.4 nM
  TGI: 11000 nM
LOX IMVI melanoma
  GI50: 186 nM and 69.5 nM
  TGI: > 100000 nM
M14 melanoma
  GI50: 51.9 nM and 42.3 nM
  TGI: > 100000 nM
MALME-3M melanoma
  GI50: 59200 nM
  TGI: > 100000 nM
MCF7 breast
  GI50: 78.5 nM and 46.8 nM
  TGI: 18600 nM
MDA-MB-231 breast
  TGI: > 100000 nM
MDA-MB-435
  GI50: 23.3 nM and 20 nM
  TGI: 67.5 nM and 53.1 nM
MOLT-4 leukemia
  GI50: 310 nM and 57.1 nM
  TGI: > 100000 nM
NCI-H226 lung
  GI50: 705 nM and 3940 nM
  TGI: > 100000 nM
NCI-H23 lung
  GI50: 302 nM and 413 nM
  TGI: 96000 nM
NCI-H460 lung
  GI50: 167 nM and 49.9 nM
  TGI: 21800 nM
NCI-H522 lung
  GI50: 34.9 nM and 21.8 nM
NCI/ADR-RES ovarian
  GI50: 44.2 nM and 47.8 nM
OVCAR-3 ovarian
  GI50: 50.2 nM and 37.9 nM
  TGI: 497 nM and 345 nM
OVCAR-4 ovarian
  GI50: 1030 nM and 5590 nM
  TGI: > 100000 nM
OVCAR-5 ovarian
  GI50: 633 nM and 1260 nM
  TGI: > 100000 nM
OVCAR-8 ovarian
  GI50: 490 nM and 327 nM
  TGI: > 100000 nM
PC-3 prostate
  GI50: 274 nM and 79.7 nM
  TGI: > 100000 nM
RPMI-8226 leukemia
  GI50: 297 nM and 106 nM
  TGI: > 100000 nM
RXF 393 renal
  GI50: 141 nM and 233 nM
SF-268 CNS
  GI50: 616 nM and 302 nM
  TGI: > 100000 nM
SF-295 CNS
  GI50: 84.5 nM and 36.7 nM
  TGI: 14200 nM
SF-539 CNS
  GI50: 126 nM and 47.5 nM
  TGI: 733 nM and 479 nM
SK-MEL-2 melanoma
  GI50: 212 nM and 38.5 nM
  TGI: 2680 nM
SK-MEL-28 melanoma
  GI50: 1710 nM and 3050 nM
  TGI: > 100000 nM
SK-MEL-5 melanoma
  GI50: 140 nM and 71.7 nM
  TGI: 835 nM and 2350 nM
SK-OV-3 ovarian
  GI50: 384 nM and 209 nM
  TGI: > 100000 nM
SN12C renal
  TGI: > 100000 nM
SNB-19 CNS
  GI50: 350 nM and 74.4 nM
  TGI: > 100000 nM
SR leukemia
  GI50: 42.6 nM
SW-620 colon
  GI50: 53 nM and 43.1 nM
  TGI: > 100000 nM
TK-10 renal
  GI50: 435 nM
  TGI: 79600 nM
U251 CNS
  GI50: 331 nM and 51.9 nM
  TGI: 12600 nM
UACC-257 melanoma
  GI50: 23200 nM
  TGI: > 100000 nM
UACC-62 melanoma
  GI50: 37.7 nM and 40.6 nM
  TGI: > 100000 nM
UO-31 renal
  GI50: 755 nM and 1200 nM
  TGI: > 100000 nM
